# Measurements published in patent publication US8084502B2, “Use of agmatine for protection of retinal ganglion cells” (priority 2007, dated 2011).
# Columns and labels:
# Type in all cases: cell-based, rat
# RGC-5 [1] = test: Hoechst 33342 and PI staining after hypoxia; conditions: hypoxia 48 hours; 100 μM of agmatine or 10 ng/mL of BDNF
# Description: The RGC-5 cell line, which is a RGC line developed from post-natal Sprague-Dawley rats, was grown in modified Dulbecco's Modified Eagle's Medium (DMEM; Gibco) supplemented with 10% of heat inactivated fetal bovine serum (Gibco) and 100 U/mL of penicillin and 100 μg/mL of streptomycin (Gibco). The cells were passaged every 2 to 3 days, and the cultures incubated at 37° C. in 5% of CO2 and air. […] For all experiments, cells were used at an 80% confluence. Cultures were transferred into a closed hypoxic chamber (Form a Scientific Co.) in which oxygen level (5% of O2, 5% of CO2, 90% of N2) and temperature (37° C.) were controlled. After washing twice with deoxygenated serum-free DMEM, cells were maintained in the hypoxic chamber. Control cells were not exposed to hypoxia. Agmatine or BDNF were added to the culture medium at the start of injury as indicated. Apoptotic or necrotic cell death was characterized by the use of Hoechst 33342 and PI double staining. Cells were stained with 10 μg/mL of Hoechst 33342 and 10 μg/mL of PI at 37° C. for 30 minutes. After washing twice with phosphate buffered saline (PBS), cells were imaged with a digital camera attached to a fluorescence microscope.
# RGC-5 [2] = test: Annexin-V assay (flow cytometry), hypoxia-induced apoptosis; conditions: agmatine 100 μM or BDNF 10 ng/ml
# Description: The RGC-5 cell line, which is a RGC line developed from post-natal Sprague-Dawley rats, was grown in modified Dulbecco's Modified Eagle's Medium (DMEM; Gibco) supplemented with 10% of heat inactivated fetal bovine serum (Gibco) and 100 U/mL of penicillin and 100 μg/mL of streptomycin (Gibco). The cells were passaged every 2 to 3 days, and the cultures incubated at 37° C. in 5% of CO2 and air. […] For all experiments, cells were used at an 80% confluence. Cultures were transferred into a closed hypoxic chamber (Form a Scientific Co.) in which oxygen level (5% of O2, 5% of CO2, 90% of N2) and temperature (37° C.) were controlled. After washing twice with deoxygenated serum-free DMEM, cells were maintained in the hypoxic chamber. Control cells were not exposed to hypoxia. Agmatine or BDNF were added to the culture medium at the start of injury as indicated. The percentage of cells actively undergoing apoptosis was determined by flow cytometry using the Annexin V-FITC Apoptosis Detection Kit (BD Biosciences, Cat no. 556547) according to the manufacturer's instructions. Briefly, cells were harvested and resuspended in binding buffer (10^6 cells/mL). 10^5 cells were mixed with 5 μL of annexin V-FITC and 5 μL of PI. After incubating at room temperature for 15 minutes in the dark, analysis was performed by flow cytometry.
# JNK = test: Western blot, phospho-JNK in hypoxic RGC-5; conditions: agmatine 100 μM, BDNF 10 ng/mL
# Description: The RGC-5 cell line, which is a RGC line developed from post-natal Sprague-Dawley rats, was grown in modified Dulbecco's Modified Eagle's Medium (DMEM; Gibco) supplemented with 10% of heat inactivated fetal bovine serum (Gibco) and 100 U/mL of penicillin and 100 μg/mL of streptomycin (Gibco). The cells were passaged every 2 to 3 days, and the cultures incubated at 37° C. in 5% of CO2 and air. […] For all experiments, cells were used at an 80% confluence. Cultures were transferred into a closed hypoxic chamber (Form a Scientific Co.) in which oxygen level (5% of O2, 5% of CO2, 90% of N2) and temperature (37° C.) were controlled. […] The protein concentrations in the resultant supernatants were measured with the Bradford reagent, and equal amounts of protein (40 μg) were boiled in Laemmli sample buffer, followed by being resolved by 10 or 15% SDS-PAGE. The proteins were transferred to polyvinylidene fluoride membranes (Immobilon; Millipore, Billerica, Mass.) and then probed overnight with antibodies against JNK, ERK p44/42, p38, NF-κB p65, phospho-JNK, phospho-ERK p44/42, phospho-p38, phospho-NF-κB, (3-actin and histone 3 as indicated (diluted 1:1000). The immunoreactive bands were detected with horseradish peroxidase-conjugated secondary antibodies and visualized by enhanced chemiluminescence.
# caspase-3 = test: Caspase-3 activity (colorimetric, Ac-DEVD-pNA cleavage) after hypoxia; conditions: hypoxia 24 hours; 100 μM of agmatine or 50 μM of Z-VAD-FMK
# Description: The RGC-5 cell line, which is a RGC line developed from post-natal Sprague-Dawley rats, was grown in modified Dulbecco's Modified Eagle's Medium (DMEM; Gibco) supplemented with 10% of heat inactivated fetal bovine serum (Gibco) and 100 U/mL of penicillin and 100 μg/mL of streptomycin (Gibco). The cells were passaged every 2 to 3 days, and the cultures incubated at 37° C. in 5% of CO2 and air. […] For all experiments, cells were used at an 80% confluence. Cultures were transferred into a closed hypoxic chamber (Form a Scientific Co.) in which oxygen level (5% of O2, 5% of CO2, 90% of N2) and temperature (37° C.) were controlled. After washing twice with deoxygenated serum-free DMEM, cells were maintained in the hypoxic chamber. Control cells were not exposed to hypoxia. Agmatine or BDNF were added to the culture medium at the start of injury as indicated. Caspase-3 activity was measured using the CaspACE™ colorimetric assay system (Promega, Cat no. G7220) according to the manufacturer's instructions. Briefly, cells were harvested and resuspended in cell lysis buffer (10^8 cells/mL). […] After incubating at 37° C. for 4 hours, absorbance was measured using a microplate reader at 405 nm. Absorbance of each sample was determined by subtraction of the mean absorbance of the blank from that of each sample.
Compound,RGC loss (Hoechst-positive / PI-positive cells) (RGC-5 [1]),proportion of apoptotic cells (RGC-5 [2]; hypoxia 12 hours),proportion of apoptotic cells (RGC-5 [2]; hypoxia 24 hours),hypoxia-induced expression of phospho-JNKs (JNK),hypoxia-induced caspase-3 activity (caspase-3)
N=C(N)NCCCCN [agmatine],RGC loss was prevented,no significant difference,significant decrease in apoptotic cells,significantly suppressed,equally suppressed
"BDNF: recombinant human BDNF (R&D System), well-known protective neurotrophin for RGCs, used as comparator",RGC loss was prevented,no significant difference,significant decrease in apoptotic cells,not,
